# Results taken from paper PMC6006285, “Specific stereochemistry of OP-1074 disrupts estrogen receptor alpha helix 12 and confers pure antiestrogenic activity” (Nature Communications, 2018).
# “And” between values parts separate entries of the source, which are not always exact repeats. Equal values may be shown once. Read-outs that look alike come from different tables or passages of the source.
# How the values were obtained:
# [1] = test system: E2-stimulated AP activity in Ishikawa cells; test: Alkaline phosphatase (AP) assay, antagonist mode (presence of 500 pM E2); assay type: cell-based, human
# Method: Our primary screen to distinguish pure antiestrogens from SERMs was induction of alkaline phosphatase (AP) activity in Ishikawa uterine cells. […] The reference SERM used in our screen was endoxifen (N-desmethyl-4-hydroxytamoxifen), the most abundant bioactive metabolite of tamoxifen.
# Shown is a representative figure analyzed and presented as above.
# At least 4 h later cells were treated with antiestrogens and media was diluted to 2.5% stripped FBS. Cells were incubated for 3 days, media removed and plates frozen at −80 °C. Thawed plates were incubated with a chromogenic substrate of AP, p-nitrophenyl phosphate (ThermoFisher Scientific, #36721), for 40–60 min at 40 °C, and absorbance read at 405 nm on the Varioskan Lux multimodal plate reader (ThermoFisher Scientific, #VLBL00D0).
# [2] = Pharmacokinetics in mouse plasma at conclusion of xenograft study; assay type: in vivo
# CAMA-1 cells = test: Inhibition of E2-stimulated proliferation of CAMA-1 cells; assay type: cell-based; settings: Homo sapiens, CAMA-1, 192 h; read-out: CAMA-1 IC50 proliferation (Fig. 3c)
# Method: Shown is a representative figure analyzed and presented as above. d, Western blot of destabilization of ERα protein by OP-1074.
# Proliferation was measured using CyQuant fluorescent DNA-binding dye kit (ThermoFisher Scientific, #C7026) using 1:200 GR dye and reading fluorescence at 485 nm excitation and 538 nm emission on the Varioskan Lux multimodal plate reader.
# [3] = test system: estrogen responsive reporter gene, ERE-tk109-Luc, in MCF-7 cells; test: Inhibition of E2-stimulated transcription of ERE-tk109-Luc reporter gene in MCF-7 cells; assay type: cell-based; settings: Homo sapiens
# wild type ERα = biological target: T1, wild type ERα (Homo sapiens, UniProt P03372); test: ERE3X-TATA-Luc reporter in HeLa cells transfected with ERα; assay type: cell-based; settings: 1 nM E2, 22 h, read-out: IC50 inhibition of E2-stimulated ERα transcriptional activity
# T1 construct: expressed in transfected cells; host or cells: HeLa
# T1 sequence (P03372 1-595): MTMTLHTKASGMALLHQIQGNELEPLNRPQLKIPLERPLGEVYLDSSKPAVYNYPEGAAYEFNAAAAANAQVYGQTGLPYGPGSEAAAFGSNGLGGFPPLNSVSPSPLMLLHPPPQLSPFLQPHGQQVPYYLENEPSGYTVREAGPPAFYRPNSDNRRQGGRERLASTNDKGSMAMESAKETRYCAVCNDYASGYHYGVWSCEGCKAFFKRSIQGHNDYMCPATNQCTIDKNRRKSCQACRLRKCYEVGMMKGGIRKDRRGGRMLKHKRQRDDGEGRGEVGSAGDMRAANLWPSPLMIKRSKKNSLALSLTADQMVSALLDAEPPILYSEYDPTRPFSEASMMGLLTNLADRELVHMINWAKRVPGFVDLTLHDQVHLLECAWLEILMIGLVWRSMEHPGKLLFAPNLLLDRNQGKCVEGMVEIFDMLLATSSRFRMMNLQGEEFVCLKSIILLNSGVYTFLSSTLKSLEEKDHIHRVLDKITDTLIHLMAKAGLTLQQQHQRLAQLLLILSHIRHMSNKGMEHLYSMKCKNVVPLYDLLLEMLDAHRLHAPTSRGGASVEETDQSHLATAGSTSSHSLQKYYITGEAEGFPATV
# Excerpt: Supplementary Figure 2: Specificity of OP-1074
# Supplementary Figure 2. OP-1074 is specific for ERα and ERβ. A, OP-1074 inhibits E2-stimulated ERα and ERβ mediated transcription. HeLa cells were transfected with an estrogen responsive reporter gene, ERE3X-TATA-Luc, along with wild type ERα or ERβ, and treated […]
# Shown is the mean luciferase activity
# Luciferase activity (% Dex)
# Luciferase activity (% MPA)
# Luciferase activity (% R1881)
# (1 picture or pasted object on this page, not shown here) […]
# representative experiment. […]
# receptor (AR, (B)), glucocorticoid receptor (GR, (C)), and the B-isoform of the progesterone receptor (PR-B, (D)). HeLa cells were transfected with the designated wild type receptor along with reporter gene PRE3X-TATA-Luc, which is promiscuously activated with known agonists specific for each receptor: R1881 for AR, dexamethasone (Dex) for GR, and medroxyprogesterone acetate (MPA) for PR-B. Each receptor was also dosed with one concentration of known antagonist for each receptor: 32 nM bicalutamide for AR, and 500 nM RU486 for GR and PR. Transfected cells were treated with the designated ligands for 22 hours and luciferase activity assayed. Shown are representative experiments, independently performed at least 3 times. Note that curves for agonists for each receptor were performed in separate experiments. […]
# ERα = biological target: T2, ERα (Homo sapiens, UniProt P03372); test: ERα protein levels by immunoblotting; assay type: cell-based; settings: MCF-7 cells, 100 nM ligand, 24 h, means of n experiments ±s.d.
# T2 construct: endogenous in cells
# T2 sequence (P03372 1-595): T1 sequence (P03372 1-595)
# Method: However, it is conceivable that under some clinical contexts SERD activity may still be a desirable feature by reducing the number of functional receptors in tumors.
# Imaging was performed on FluorChem Imager by Alpha Innotech. […] An uncropped image of the immunoblot is shown in Supplementary Fig. 5.
# MCF-7 cells = test: Inhibition of E2-stimulated proliferation of MCF-7 cells; assay type: cell-based; settings: Homo sapiens
# [4] = female, athymic nude, mouse plasma, final dose, 100 mg/kg oral gavage twice daily
structure (smiles),measurement,setting,value
CC1=C(c2ccc(O)cc2)[C@H](c2ccc(OCCN3CC[C@@H](C)C3)cc2)Oc2cc(O)ccc21 [OP-1074],IC50,"[1]; Homo sapiens, Ishikawa, 72 h, read-out: IC50 inhibition of E2-stimulated AP activity",20 nM
same,Antagonism of E2-stimulated AP activity,"[1]; Ishikawa cells, 500 pM E2",completely antagonized E2
same,Cmax,"[2]; female, athymic nude, oral, 100 mg/kg, mouse plasma, final dose, over a 24-h period, read-out: Cmax (Fig. 7c)",1280 ng/mL
same,AUC,[2]; [4],8200 ng·h/mL
same,Tmax,[2]; [4],1.5 h
same,half-life,[2]; [4],3.01 h
same,Cmax,"[2]; female, athymic nude, mouse plasma, final dose, 100 mg/kg oral gavage twice daily, read-out: Cmax",1300 ng/mL
same,Oral bioavailability,"[2]; mouse, 100 mg/kg oral gavage twice daily",good oral bioavailability
same,IC50,CAMA-1 cells,5.7 nM
same,IC50,"[3]; MCF7, 22 h, read-out: IC50 inhibition of E2-stimulated transcription (Fig. 3a)",3.2 nM
same,IC50,"[3]; MCF7, 24 h, read-out: IC50 transcription",1.8 ± 0.3 nM
same,IC50,wild type ERα,1.6 nM and 1.7 nM
same,Relative ERα protein levels (% vehicle),ERα,49 % vehicle and 49% ± 13 (n = 15) % vehicle
same,IC50,"MCF-7 cells; MCF7, 168 h, read-out: MCF-7 IC50 proliferation (Fig. 3b)",9.2 nM
same,IC50,"MCF-7 cells; MCF7, read-out: IC50 proliferation",7.2 ± 0.9 nM
